{"source": "paper PMC11116414", "about": "“Impact of secretin receptor homo-dimerization on natural ligand binding” (Nature Communications, 2024)", "key": {"WT SecR [1]": {"target": "T1, WT SecR (Homo sapiens, UniProt P47872)", "T1 construct": "expressed in transfected cells; membranes isolated from CHO-SecR cells", "T1 sequence (P47872 23-440)": "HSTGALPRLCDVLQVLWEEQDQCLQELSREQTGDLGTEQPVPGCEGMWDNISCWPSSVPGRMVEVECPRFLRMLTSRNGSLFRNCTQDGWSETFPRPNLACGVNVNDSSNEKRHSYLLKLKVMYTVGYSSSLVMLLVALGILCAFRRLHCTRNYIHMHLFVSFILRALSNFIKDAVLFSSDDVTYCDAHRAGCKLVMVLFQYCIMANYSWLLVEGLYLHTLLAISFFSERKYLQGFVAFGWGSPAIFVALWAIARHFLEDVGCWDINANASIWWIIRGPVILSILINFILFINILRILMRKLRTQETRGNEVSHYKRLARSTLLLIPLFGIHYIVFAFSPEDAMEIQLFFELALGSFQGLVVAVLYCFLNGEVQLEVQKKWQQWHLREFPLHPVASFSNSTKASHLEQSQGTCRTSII", "experiment": "Fluorescence anisotropy of receptor-bound probes, WT SecR", "details": "for Anisotropy: SecR WT, membranes, 50 nM probe, mean ± S.E.M., n = 3; for anisotropy, + GppNHp vs control, in words: WT SecR, 20 and 37 °C", "procedure": "(§1) Incubations were terminated by separating receptor-bound ligand from free ligand using centrifugation at 25,000 × g for 10 min at 4 °C. The sample pellet was washed again with ice-cold KRH medium and resuspended in KRH medium for fluorescence measurements. The samples were excited at 481 nm and the emission was collected at 521 nm, with a bandwidth of 5 nm at an integration rate of 0.5 nm/s, and fluorescence intensities were collected by constant wavelength single point analysis using SPEX Fluoromax 3 (Horiba Scientific, Piscataway, NJ) with Origin version 8.1."}, "SecR(G264A,I268A) [2]": {"target": "T2, SecR(G264A,I268A) (Homo sapiens, UniProt P47872, G264A/I268A)", "T2 construct": "expressed in transfected cells; membranes isolated from these cells", "T2 sequence (P47872 23-440 G264A/I268A)": "as the sequence (P47872 23-440) above, with G242A, I246A counted along it", "experiment": "Fluorescence anisotropy of receptor-bound probes, mutant SecR", "details": "membranes, 50 nM probe, mean ± S.E.M., n = 3", "procedure": "as §1"}, "SecR(G264A,I268A) [3]": {"target": "T2, SecR(G264A,I268A)", "experiment": "KI collisional fluorescence quenching of receptor-bound probes, mutant SecR", "details": "KI quencher, mean ± S.E.M., n = 3", "procedure": "as §1\n(§2) Fluorescence collisional quenching studies were performed using the hydrophilic quenching reagent, potassium iodide (KI), as described previously. Fluorescence intensities of receptor-bound probes were collected by exciting samples at 481 nm using Fluoromax-3 spectrofluorometer single point measurement by Origin version 8.1. […] The effect of ionic strength was determined by measuring fluorescence intensities in potassium chloride. […] The Stern–Volmer quenching constant, KSV, was calculated from the slope of Fo/F as a function of the quencher concentration [I^−]."}, "WT SecR [4]": {"target": "T1, WT SecR", "experiment": "KI collisional fluorescence quenching of receptor-bound probes, WT SecR", "details": "KI quencher, mean ± S.E.M., n = 3", "procedure": "as §1, §2"}, "[5]": {"target": "Cys7-[Tyr10]secretin(1-27) agonist probe", "experiment": "cysteine trapping, autoradiograph densitometry", "details": "intact COS-1 cells, non-reducing 10% SDS-PAGE, n = 3, read off a plot"}, "[6]": {"target": "Cys6-[Tyr10]secretin(1-27) agonist probe", "experiment": "cysteine trapping, autoradiograph densitometry", "details": "intact COS-1 cells, non-reducing 10% SDS-PAGE, n = 5, read off a plot"}, "[7]": {"target": "Cys2-[Tyr10]secretin(1-27) agonist probe", "experiment": "cysteine trapping, autoradiograph densitometry", "details": "ECL2 series; intact COS-1 cells; non-reducing 10% SDS-PAGE; n = 4; read off a plot"}, "[8]": {"details": "control, 20 °C, KRH pH 7.4, ex 481 nm"}, "[9]": {"details": "control, 37 °C, KRH pH 7.4, ex 481 nm"}, "[10]": {"details": "+GppNHp (uncoupled state, 10 µM)"}, "[11]": {"details": "-GppNHp (active state), 50 nM probe, ex 481/em 521 nm"}}, "data": [{"molecule": "CC(C)C[C@H](NC(=O)CNC(=O)[C@H](CCC(N)=O)NC(=O)[C@H](CC(C)C)NC(=O)[C@H](CC(C)C)NC(=O)[C@H](CCCNC(=N)N)NC(=O)[C@H](CCC(N)=O)NC(=O)[C@H](CC(C)C)NC(=O)[C@H](CCCNC(=N)N)NC(=O)[C@H](C)NC(=O)CNC(=O)[C@H](CCC(=O)O)NC(=O)[C@H](CCCNC(=N)N)NC(=O)[C@H](CCCCNC(=O)c1ccc(-c2c3ccc(=N)c(S(=O)(=O)O)c-3oc3c(S(=O)(=O)O)c(N)ccc23)c(C(=O)O)c1)NC(=O)[C@H](CCCNC(=N)N)NC(=O)[C@H](CO)NC(=O)[C@H](CC(C)C)NC(=O)[C@H](CCC(=O)O)NC(=O)[C@H](CO)NC(=O)[C@@H](NC(=O)[C@H](Cc1ccccc1)NC(=O)[C@@H](NC(=O)CNC(=O)[C@H](CC(=O)O)NC(=O)[C@H](CO)NC(=O)[C@@H](N)Cc1c[nH]cn1)[C@@H](C)O)[C@@H](C)O)C(=O)N[C@H](C(N)=O)C(C)C", "note": "[(Lys^13-Alexa^488)Sec]", "values": [{"measurement": "Anisotropy", "setting": "WT SecR [1]; +GppNHp (10 µM), 20 °C", "value": "0.20 ± 0.02"}, {"measurement": "Anisotropy", "setting": "WT SecR [1]; +GppNHp (10 µM), 37 °C", "value": "0.12 ± 0.01"}, {"measurement": "Anisotropy", "setting": "WT SecR [1]; [8]", "value": "0.14 ± 0.01"}, {"measurement": "Anisotropy", "setting": "WT SecR [1]; [9]", "value": "0.06 ± 0.01"}, {"measurement": "anisotropy, + GppNHp vs control, in words", "setting": "WT SecR [1]", "value": "higher anisotropy after treatment with GppNHp than the control state"}, {"measurement": "Anisotropy", "setting": "SecR(G264A,I268A) [2]; +GppNHp (10 µM), 20 °C", "value": "0.20 ± 0.01"}, {"measurement": "Anisotropy", "setting": "SecR(G264A,I268A) [2]; +GppNHp (10 µM), 37 °C", "value": "0.11 ± 0.01"}, {"measurement": "Anisotropy", "setting": "SecR(G264A,I268A) [2]; control, 20 °C", "value": "0.18 ± 0.02"}, {"measurement": "Anisotropy", "setting": "SecR(G264A,I268A) [2]; control, 37 °C", "value": "0.11 ± 0.01"}, {"measurement": "Stern-Volmer quenching constant (Ksv)", "setting": "SecR(G264A,I268A) [3]; [10]", "value": "4.5±0.9"}, {"measurement": "Stern-Volmer quenching constant (Ksv)", "setting": "SecR(G264A,I268A) [3]; -GppNHp (active state)", "value": "5.2±0.4"}, {"measurement": "Stern-Volmer quenching constant (Ksv)", "setting": "WT SecR [4]; [10]", "value": "3.9±02"}, {"measurement": "Stern-Volmer quenching constant (Ksv)", "setting": "WT SecR [4]; [11]", "value": "7.9±0.6"}]}, {"molecule": "CC(C)C[C@H](NC(=O)CNC(=O)[C@H](CCC(N)=O)NC(=O)[C@H](CC(C)C)NC(=O)[C@H](CCCCNC(=O)c1ccc(-c2c3ccc(=N)c(S(=O)(=O)O)c-3oc3c(S(=O)(=O)O)c(N)ccc23)c(C(=O)O)c1)NC(=O)[C@H](CCCNC(=N)N)NC(=O)[C@H](CCC(N)=O)NC(=O)[C@H](CC(C)C)NC(=O)[C@H](CCCNC(=N)N)NC(=O)[C@H](C)NC(=O)CNC(=O)[C@H](CCC(=O)O)NC(=O)[C@H](CCCNC(=N)N)NC(=O)[C@H](CC(C)C)NC(=O)[C@H](CCCNC(=N)N)NC(=O)[C@H](CO)NC(=O)[C@H](CC(C)C)NC(=O)[C@H](CCC(=O)O)NC(=O)[C@H](CO)NC(=O)[C@@H](NC(=O)[C@H](Cc1ccccc1)NC(=O)[C@@H](NC(=O)CNC(=O)[C@H](CC(=O)O)NC(=O)[C@H](CO)NC(=O)[C@@H](N)Cc1c[nH]cn1)[C@@H](C)O)[C@@H](C)O)C(=O)N[C@H](C(N)=O)C(C)C", "note": "[(Lys^22-Alexa^488)Sec]", "values": [{"measurement": "Anisotropy", "setting": "WT SecR [1]; +GppNHp (10 µM), 20 °C", "value": "0.20 ± 0.02"}, {"measurement": "Anisotropy", "setting": "WT SecR [1]; +GppNHp (10 µM), 37 °C", "value": "0.12 ± 0.01"}, {"measurement": "Anisotropy", "setting": "WT SecR [1]; [8]", "value": "0.14 ± 0.01"}, {"measurement": "Anisotropy", "setting": "WT SecR [1]; [9]", "value": "0.06 ± 0.01"}, {"measurement": "anisotropy, + GppNHp vs control, in words", "setting": "WT SecR [1]", "value": "higher anisotropy after treatment with GppNHp than the control state"}, {"measurement": "Anisotropy", "setting": "SecR(G264A,I268A) [2]; +GppNHp (10 µM), 20 °C", "value": "0.19 ± 0.01"}, {"measurement": "Anisotropy", "setting": "SecR(G264A,I268A) [2]; +GppNHp (10 µM), 37 °C", "value": "0.12 ± 0.01"}, {"measurement": "Anisotropy", "setting": "SecR(G264A,I268A) [2]; control, 20 °C", "value": "0.18 ± 0.01"}, {"measurement": "Anisotropy", "setting": "SecR(G264A,I268A) [2]; control, 37 °C", "value": "0.10 ± 0.01"}, {"measurement": "Stern-Volmer quenching constant (Ksv)", "setting": "SecR(G264A,I268A) [3]; [10]", "value": "4.3±0.2"}, {"measurement": "Stern-Volmer quenching constant (Ksv)", "setting": "SecR(G264A,I268A) [3]; -GppNHp (active state)", "value": "6.1±0.3"}, {"measurement": "Stern-Volmer quenching constant (Ksv)", "setting": "WT SecR [4]; [10]", "value": "4.5±0.2"}, {"measurement": "Stern-Volmer quenching constant (Ksv)", "setting": "WT SecR [4]; [11]", "value": "8.9±1.0"}]}, {"molecule": "CC(C)C[C@H](NC(=O)CNC(=O)[C@H](CCC(N)=O)NC(=O)[C@H](CC(C)C)NC(=O)[C@H](CC(C)C)NC(=O)[C@H](CCCNC(=N)N)NC(=O)[C@H](CCC(N)=O)NC(=O)[C@H](CC(C)C)NC(=O)[C@H](CCCNC(=N)N)NC(=O)[C@H](C)NC(=O)CNC(=O)[C@H](CCC(=O)O)NC(=O)[C@H](CCCNC(=N)N)NC(=O)[C@H](CC(C)C)NC(=O)[C@H](CCCNC(=N)N)NC(=O)[C@H](CO)NC(=O)[C@H](CC(C)C)NC(=O)[C@H](CCC(=O)O)NC(=O)[C@H](CO)NC(=O)[C@@H](NC(=O)[C@H](Cc1ccccc1)NC(=O)[C@@H](NC(=O)CNC(=O)[C@H](CC(=O)O)NC(=O)[C@H](CO)NC(=O)[C@@H](N)Cc1c[nH]cn1)[C@@H](C)O)[C@@H](C)O)C(=O)N[C@H](C(=O)NCC(=O)N[C@@H](CSC1CC(=O)N(CCCCCNC(=O)c2ccc(-c3c4ccc(=N)c(S(=O)(=O)O)c-4oc4c(S(=O)(=O)O)c(N)ccc34)c(C(=O)O)c2)C1=O)C(N)=O)C(C)C", "note": "(stereo partly drawn) [Sec-Gly^28-(Cys^29-Alexa^488)]", "values": [{"measurement": "Anisotropy", "setting": "WT SecR [1]; +GppNHp (10 µM), 20 °C", "value": "0.13 ± 0.01"}, {"measurement": "Anisotropy", "setting": "WT SecR [1]; +GppNHp (10 µM), 37 °C", "value": "0.08 ± 0.01"}, {"measurement": "Anisotropy", "setting": "WT SecR [1]; [8]", "value": "0.13 ± 0.01"}, {"measurement": "Anisotropy", "setting": "WT SecR [1]; [9]", "value": "0.08 ± 0.01"}, {"measurement": "Anisotropy", "setting": "SecR(G264A,I268A) [2]; +GppNHp (10 µM), 20 °C", "value": "0.15 ± 0.01"}, {"measurement": "Anisotropy", "setting": "SecR(G264A,I268A) [2]; +GppNHp (10 µM), 37 °C", "value": "0.1 ± 0.01"}, {"measurement": "Anisotropy", "setting": "SecR(G264A,I268A) [2]; control, 20 °C", "value": "0.13 ± 0.01"}, {"measurement": "Anisotropy", "setting": "SecR(G264A,I268A) [2]; control, 37 °C", "value": "0.09 ± 0.01"}, {"measurement": "Stern-Volmer quenching constant (Ksv)", "setting": "SecR(G264A,I268A) [3]; [10]", "value": "4.2±0.8"}, {"measurement": "Stern-Volmer quenching constant (Ksv)", "setting": "SecR(G264A,I268A) [3]; -GppNHp (active state)", "value": "5.6±1.1"}, {"measurement": "Stern-Volmer quenching constant (Ksv)", "setting": "WT SecR [4]; [10]", "value": "4.9±0.4"}, {"measurement": "Stern-Volmer quenching constant (Ksv)", "setting": "WT SecR [4]; [11]", "value": "6.2±0.7"}]}, {"molecule": "human wild type secretin receptor (SecR WT) (from UniProt P47872) G264A; I268A; A359C", "values": [{"measurement": "other: receptor labeling (% of maximum signal) (% of maximum signal)", "setting": "[5]; ECL3 series", "value": 85}]}, {"molecule": "human wild type secretin receptor (SecR WT) (from UniProt P47872) G264A; I268A; I288C", "values": [{"measurement": "other: receptor labeling (% of maximum signal) (% of maximum signal)", "setting": "[5]; ECL2 series", "value": 68}]}, {"molecule": "human wild type secretin receptor (SecR WT) (from UniProt P47872) G264A; I268A; L374C", "values": [{"measurement": "other: receptor labeling (% of maximum signal) (% of maximum signal)", "setting": "[6]; ECL3 series", "value": 77}, {"measurement": "other: receptor labeling (% of maximum signal) (% of maximum signal)", "setting": "[5]; ECL3 series", "value": 88}]}, {"molecule": "human wild type secretin receptor (SecR WT) (from UniProt P47872) G264A; I268A; W295C", "values": [{"measurement": "other: receptor labeling (% of maximum signal) (% of maximum signal)", "setting": "[7]", "value": 93}, {"measurement": "other: receptor labeling (% of maximum signal) (% of maximum signal)", "setting": "[5]; ECL2 series", "value": 83}]}, {"molecule": "human wild type secretin receptor (SecR WT) (from UniProt P47872) G264A; I268A; W296C", "values": [{"measurement": "other: receptor labeling (% of maximum signal) (% of maximum signal)", "setting": "[6]; ECL2 series", "value": 68}]}]}
